Assay results from the supplement of paper PMC10477900.
Counter-ions that a name gives are not always drawn.

Columns and labels:
HCT116 [1] = assay: viability inhibition vs untreated; higher = more cytotoxic; conditions: 72 h
HCT116 [2] = conditions: 72 h
Procedure: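 HCT116 control and MTA1-KO (CRISPR) HCT116 cells were seeded in 384-well plates (800 cells/well), treated 16 h later with 237 metabolism-related anticancer drugs at five doses (10 uM, 2 uM, 400 nM, 80 nM, 16 nM) for 72 h, two replicates; viability by CCK8. Values are % inhibition of viability relative to untreated cells, plus fitted IC50.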

N[C@@H](CSCCB(O)O)C(=O)O [BEC HCl]
viability inhibition (HCT116 [1]; genotype: MTA1-KO, 16 nM): 7.68%
viability inhibition (HCT116 [1]; genotype: MTA1-KO, 80 nM): -6.82%
viability inhibition (HCT116 [1]; genotype: MTA1-KO, 400 nM): -3.32%
viability inhibition (HCT116 [1]; genotype: MTA1-KO, 2000 nM): 5.74%
viability inhibition (HCT116 [1]; genotype: MTA1-KO, 10000 nM): 56.8%
viability inhibition (HCT116 [1]; genotype: control, 16 nM): -17.3%
viability inhibition (HCT116 [1]; genotype: control, 80 nM): -19%
viability inhibition (HCT116 [1]; genotype: control, 400 nM): -3.82%
viability inhibition (HCT116 [1]; genotype: control, 2000 nM): -14%
viability inhibition (HCT116 [1]; genotype: control, 10000 nM): -7.11%
IC50 (HCT116 [2]; genotype: MTA1-KO): 8.12 µM
IC50 (HCT116 [2]; genotype: control): > 10 µM

COc1ccc(-c2ccc3ncc4c(c3c2)n(-c2ccc(N3CCNCC3)c(C(F)(F)F)c2)c(=O)n4C)cn1 [BGT226]
viability inhibition (HCT116 [1]; genotype: MTA1-KO, 16 nM): 3.91%
viability inhibition (HCT116 [1]; genotype: MTA1-KO, 80 nM): 56.3%
viability inhibition (HCT116 [1]; genotype: MTA1-KO, 400 nM): 83%
viability inhibition (HCT116 [1]; genotype: MTA1-KO, 2000 nM): 97.4%
viability inhibition (HCT116 [1]; genotype: MTA1-KO, 10000 nM): 106%
viability inhibition (HCT116 [1]; genotype: control, 16 nM): -4.27%
viability inhibition (HCT116 [1]; genotype: control, 80 nM): 60.1%
viability inhibition (HCT116 [1]; genotype: control, 400 nM): 90.7%
viability inhibition (HCT116 [1]; genotype: control, 2000 nM): 99%
viability inhibition (HCT116 [1]; genotype: control, 10000 nM): 116%
IC50 (HCT116 [2]; genotype: MTA1-KO): 0.0773 µM
IC50 (HCT116 [2]; genotype: control): 0.0713 µM

O=C(Cc1ccccc1)Nc1nnc(CCSCCc2nnc(NC(=O)Cc3ccccc3)s2)s1 [BPTES]
viability inhibition (HCT116 [1]; genotype: MTA1-KO, 16 nM): -12.8%
viability inhibition (HCT116 [1]; genotype: MTA1-KO, 80 nM): -12.2%
viability inhibition (HCT116 [1]; genotype: MTA1-KO, 400 nM): 0.728%
viability inhibition (HCT116 [1]; genotype: MTA1-KO, 2000 nM): 8.71%
viability inhibition (HCT116 [1]; genotype: MTA1-KO, 10000 nM): 41.5%
viability inhibition (HCT116 [1]; genotype: control, 16 nM): -3.88%
viability inhibition (HCT116 [1]; genotype: control, 80 nM): -3.14%
viability inhibition (HCT116 [1]; genotype: control, 400 nM): -1.6%
viability inhibition (HCT116 [1]; genotype: control, 2000 nM): -0.809%
viability inhibition (HCT116 [1]; genotype: control, 10000 nM): -19.2%
IC50 (HCT116 [2]; genotype: MTA1-KO): > 10 µM
IC50 (HCT116 [2]; genotype: control): > 10 µM

C/C(=C1/C(=O)Nc2ccc(NC(N)=O)cc21)c1ccc[nH]1 [BX517]
viability inhibition (HCT116 [1]; genotype: MTA1-KO, 16 nM): -1.27%
viability inhibition (HCT116 [1]; genotype: MTA1-KO, 80 nM): -4.96%
viability inhibition (HCT116 [1]; genotype: MTA1-KO, 400 nM): -15%
viability inhibition (HCT116 [1]; genotype: MTA1-KO, 2000 nM): -7.43%
viability inhibition (HCT116 [1]; genotype: MTA1-KO, 10000 nM): 62.3%
viability inhibition (HCT116 [1]; genotype: control, 16 nM): 7.33%
viability inhibition (HCT116 [1]; genotype: control, 80 nM): -2.63%
viability inhibition (HCT116 [1]; genotype: control, 400 nM): 0.244%
viability inhibition (HCT116 [1]; genotype: control, 2000 nM): 10.4%
viability inhibition (HCT116 [1]; genotype: control, 10000 nM): 67.6%
IC50 (HCT116 [2]; genotype: MTA1-KO): 7.24 µM
IC50 (HCT116 [2]; genotype: control): 6.88 µM

O=C(NCCCNc1nc(Nc2cccc(NC(=O)N3CCCC3)c2)ncc1I)c1cccs1 [BX795]
viability inhibition (HCT116 [1]; genotype: MTA1-KO, 16 nM): -13.8%
viability inhibition (HCT116 [1]; genotype: MTA1-KO, 80 nM): -8.82%
viability inhibition (HCT116 [1]; genotype: MTA1-KO, 400 nM): -26.4%
viability inhibition (HCT116 [1]; genotype: MTA1-KO, 2000 nM): -9.81%
viability inhibition (HCT116 [1]; genotype: MTA1-KO, 10000 nM): -6.85%
viability inhibition (HCT116 [1]; genotype: control, 16 nM): -1.4%
viability inhibition (HCT116 [1]; genotype: control, 80 nM): -15%
viability inhibition (HCT116 [1]; genotype: control, 400 nM): -1.64%
viability inhibition (HCT116 [1]; genotype: control, 2000 nM): 18.7%
viability inhibition (HCT116 [1]; genotype: control, 10000 nM): 7.91%
IC50 (HCT116 [2]; genotype: MTA1-KO): > 10 µM
IC50 (HCT116 [2]; genotype: control): > 10 µM

O=C(Nc1cccc(Nc2ncc(Br)c(NCCc3cnc[nH]3)n2)c1)N1CCCC1 [BX912]
viability inhibition (HCT116 [1]; genotype: MTA1-KO, 16 nM): -9.54%
viability inhibition (HCT116 [1]; genotype: MTA1-KO, 80 nM): 7.13%
viability inhibition (HCT116 [1]; genotype: MTA1-KO, 400 nM): 22.8%
viability inhibition (HCT116 [1]; genotype: MTA1-KO, 2000 nM): 64.5%
viability inhibition (HCT116 [1]; genotype: MTA1-KO, 10000 nM): 92.4%
viability inhibition (HCT116 [1]; genotype: control, 16 nM): -0.895%
viability inhibition (HCT116 [1]; genotype: control, 80 nM): -7.72%
viability inhibition (HCT116 [1]; genotype: control, 400 nM): 13.9%
viability inhibition (HCT116 [1]; genotype: control, 2000 nM): 47.2%
viability inhibition (HCT116 [1]; genotype: control, 10000 nM): 75.2%
IC50 (HCT116 [2]; genotype: MTA1-KO): 1.27 µM
IC50 (HCT116 [2]; genotype: control): 1.5 µM

CC1(C)CC[C@]2(C(=O)O)CC[C@]3(C)[C@H](C(=O)C=C4[C@@]5(C)C=C(C#N)C(=O)C(C)(C)[C@@H]5CC[C@]43C)[C@@H]2C1 [Bardoxolone]
viability inhibition (HCT116 [1]; genotype: MTA1-KO, 16 nM): 6.64%
viability inhibition (HCT116 [1]; genotype: MTA1-KO, 80 nM): -8.28%
viability inhibition (HCT116 [1]; genotype: MTA1-KO, 400 nM): -9%
viability inhibition (HCT116 [1]; genotype: MTA1-KO, 2000 nM): 44.1%
viability inhibition (HCT116 [1]; genotype: MTA1-KO, 10000 nM): 103%
viability inhibition (HCT116 [1]; genotype: control, 16 nM): -7.41%
viability inhibition (HCT116 [1]; genotype: control, 80 nM): -6.83%
viability inhibition (HCT116 [1]; genotype: control, 400 nM): -2.5%
viability inhibition (HCT116 [1]; genotype: control, 2000 nM): 40.7%
viability inhibition (HCT116 [1]; genotype: control, 10000 nM): 103%
IC50 (HCT116 [2]; genotype: MTA1-KO): 3.04 µM
IC50 (HCT116 [2]; genotype: control): 2.54 µM

NS(=O)(=O)c1cc2c(cc1C(F)(F)F)NC(Cc1ccccc1)NS2(=O)=O (stereo not drawn) [Bendroflumethiazide]
viability inhibition (HCT116 [1]; genotype: MTA1-KO, 16 nM): -4.82%
viability inhibition (HCT116 [1]; genotype: MTA1-KO, 80 nM): -2.33%
viability inhibition (HCT116 [1]; genotype: MTA1-KO, 400 nM): -5.2%
viability inhibition (HCT116 [1]; genotype: MTA1-KO, 2000 nM): -12.6%
viability inhibition (HCT116 [1]; genotype: MTA1-KO, 10000 nM): -13.6%
viability inhibition (HCT116 [1]; genotype: control, 16 nM): 0.542%
viability inhibition (HCT116 [1]; genotype: control, 80 nM): -1.18%
viability inhibition (HCT116 [1]; genotype: control, 400 nM): -14.6%
viability inhibition (HCT116 [1]; genotype: control, 2000 nM): 4.49%
viability inhibition (HCT116 [1]; genotype: control, 10000 nM): -9.53%
IC50 (HCT116 [2]; genotype: MTA1-KO): > 10 µM
IC50 (HCT116 [2]; genotype: control): > 10 µM

NS(=O)(=O)c1ccccc1 [Benzenesulfonamide]
viability inhibition (HCT116 [1]; genotype: MTA1-KO, 16 nM): 3.96%
viability inhibition (HCT116 [1]; genotype: MTA1-KO, 80 nM): -4.26%
viability inhibition (HCT116 [1]; genotype: MTA1-KO, 400 nM): 4.06%
viability inhibition (HCT116 [1]; genotype: MTA1-KO, 2000 nM): 12.2%
viability inhibition (HCT116 [1]; genotype: MTA1-KO, 10000 nM): 54.7%
viability inhibition (HCT116 [1]; genotype: control, 16 nM): 7.65%
viability inhibition (HCT116 [1]; genotype: control, 80 nM): 12.9%
viability inhibition (HCT116 [1]; genotype: control, 400 nM): 10.8%
viability inhibition (HCT116 [1]; genotype: control, 2000 nM): 25.5%
viability inhibition (HCT116 [1]; genotype: control, 10000 nM): 55.6%
IC50 (HCT116 [2]; genotype: MTA1-KO): 9.29 µM
IC50 (HCT116 [2]; genotype: control): 8.77 µM
